Test results taken from ChEMBL document CHEMBL4765458, “Synthesis and biological evaluation of organoselenium (NSAIDs-SeCN and SeCF) derivatives as potential anticancer agents” (Eur J Med Chem, 2020).

Tests used:
MCF7 [1] = test: Cytotoxicity against human MCF7 cells assessed as reduction in cell viability measured after 72 hrs by MTT assay; format: functional, cell-based; conditions: MCF7, 72 h
A549 [2] = test: Cytotoxicity against human A549 cells assessed as reduction in cell viability measured after 72 hrs by MTT assay; format: functional, cell-based; conditions: A549, 72 h
A549 [3] = test: Cytotoxicity against human A549 cells assessed as reduction in cell viability measured after 24 hrs by MTT assay; format: functional, cell-based; conditions: A549, 24 h
SW480 [4] = test: Cytotoxicity against human SW480 cells assessed as reduction in cell viability measured after 72 hrs by MTT assay; format: functional, cell-based; conditions: SW480, 72 h
SW480 [5] = test: Cytotoxicity against human SW480 cells assessed as reduction in cell viability measured after 48 hrs by MTT assay; format: functional, cell-based; conditions: SW480, 48 h
SW480 [6] = test: Cytotoxicity against human SW480 cells assessed as reduction in cell viability measured after 24 hrs by MTT assay; format: functional, cell-based; conditions: SW480, 24 h
HeLa [7] = test: Cytotoxicity against human HeLa cells assessed as reduction in cell viability measured after 24 hrs by MTT assay; format: functional, cell-based
MCF7 [8] = test: Cytotoxicity against human MCF7 cells assessed as reduction in cell viability measured after 24 hrs by MTT assay; format: functional, cell-based; conditions: MCF7, 24 h
A549 [9] = test: cells; conditions: Homo sapiens, A549, 48 h
HeLa [10] = test: Cytotoxicity against human HeLa cells assessed as reduction in cell viability measured after 72 hrs by MTT assay; format: functional, cell-based
HeLa [11] = test: Cytotoxicity against human HeLa cells assessed as reduction in cell viability measured after 48 hrs by MTT assay; format: functional, cell-based
MCF7 [12] = test: Cytotoxicity against human MCF7 cells assessed as reduction in cell viability measured after 48 hrs by MTT assay; format: functional, cell-based; conditions: MCF7, 48 h
[13] = Antioxidant activity assessed as DPPH radical scavenging activity incubated for 30 mins under dark condition relative to control; format: functional; design: concentration or dose not given beside the values

Compound	IC50 (MCF7 [1]) [µM]	IC50 (A549 [2]) [µM]	IC50 (A549 [3]) [µM]	IC50 (SW480 [4]) [µM]	IC50 (SW480 [5]) [µM]	IC50 (SW480 [6]) [µM]	IC50 (HeLa [7]) [µM]	IC50 (MCF7 [8]) [µM]	IC50 (A549 [9]) [µM]	IC50 (HeLa [10]) [µM]	IC50 (HeLa [11]) [µM]	IC50 (MCF7 [12]) [µM]	inhibition [13] [%]
CC(C(=O)O)c1cccc(C(=O)c2ccccc2)c1 (stereo not drawn) [KETOPROFEN]	> 50	> 50	> 50	> 50	> 50	> 50	> 50	> 50	> 50	> 50	> 50	> 50	–
CCc1cccc2c3c([nH]c12)C(CC)(CC(=O)NCCC[Se]C(F)(F)F)OCC3 (stereo not drawn)	33.5	26.6	19.4	19.6	14.5	17.5	22.8	26.2	17.7	25.5	14.4	28.4	26.8
C[C@H](C(=O)NCCC[Se]C#N)c1cccc(C(=O)c2ccccc2)c1	12.5	32.6	24.1	7.7	8.4	10.2	25.6	9.6	28.4	34.7	18.5	11.3	30.4
COc1ccc2cc([C@H](C)C(=O)NCCC[Se]C(F)(F)F)ccc2c1	35.5	> 50	28.4	25.4	15.7	10	16.5	19.3	33.5	30.7	22.5	22.1	37.2
CCc1cccc2c3c([nH]c12)C(CC)(CC(=O)NCCC[Se]C#N)OCC3 (stereo not drawn)	> 50	36.6	28.4	20.6	18.9	19.5	26.8	35.2	21.7	28.5	17.4	37.4	24.5
O=c1[nH]cc(F)c(=O)[nH]1 [FLUOROURACIL]	12.6	17.3	25.3	–	12.4	15.3	20.6	8.5	–	12.7	15.5	10.4	–
COc1ccc2c(c1)c(CC(=O)NCCC[Se]C#N)c(C)n2C(=O)c1ccc(Cl)cc1	> 50	> 50	28.5	14.2	18.2	16.3	32.1	28.3	31.2	19.6	24.4	> 50	49.6
CC1=C(CC(=O)O)c2cc(F)ccc2/C1=C\c1ccc([S+](C)[O-])cc1 (stereo not drawn)	> 50	> 50	> 50	> 50	> 50	> 50	> 50	> 50	> 50	> 50	> 50	> 50	–
CC(C(=O)NCCC[Se]C#N)c1ccc(-c2ccccc2)c(F)c1 (stereo not drawn)	> 50	> 50	23.5	21.7	30.5	23.2	36.2	22.4	32.2	15.9	32.4	32.1	16.3
COc1ccc2c(c1)c(CC(=O)O)c(C)n2C(=O)c1ccc(Cl)cc1 [INDOMETHACIN]	> 50	> 50	> 50	> 50	> 50	> 50	> 50	> 50	> 50	> 50	> 50	> 50	–
N#C[Se]CCCNC(=O)c1ccccc1Nc1cccc(C(F)(F)F)c1	13.3	36.4	26.1	24.7	17.4	25.2	38.2	14.2	28.3	> 50	33.4	16.4	–
Cc1cccc(Nc2ccccc2C(=O)NCCC[Se]C(F)(F)F)c1C	6.9	> 50	27.3	10.3	8.4	12.4	24.5	8.5	36.8	> 50	28.3	9.2	38.9
CC1=C(CC(=O)NCCC[Se]C(F)(F)F)c2cc(F)ccc2/C1=C\c1ccc([S+](C)[O-])cc1 (stereo not drawn)	10.4	7.4	9.4	10.1	11.4	13.4	24.3	8.2	11.3	19.4	15.1	6.4	32.8
COc1ccc2cc([C@H](C)C(=O)NCCC[Se]C#N)ccc2c1	> 50	> 50	32.2	30.4	21.7	12	21.5	28.3	> 50	35.7	24.5	27.1	22.6
CC1=C(CC(=O)NCCC[Se]C#N)c2cc(F)ccc2/C1=C\c1ccc([S+](C)[O-])cc1 (stereo not drawn)	11.3	9.4	11.4	12.1	12.4	15.4	28.4	13.2	15.3	21.5	16.2	8.4	21.2
O=C(NCCC[Se]C(F)(F)F)c1ccccc1Nc1cccc(C(F)(F)F)c1	9.3	26.4	18.1	19.7	15.7	22.2	33.2	7.2	21.3	> 50	30.3	8.4	–
COc1ccc2c(c1)c(CC(=O)NCCC[Se]C(F)(F)F)c(C)n2C(=O)c1ccc(Cl)cc1	35	30.3	18.3	13.1	16.4	14.6	30.1	17.3	26.5	15.6	21.4	26	25.8
